Tests used:
Erk1 = Erk1 (Homo sapiens (Human), UniProt P27361); experiment: Protein Mass Modification Assay (intact protein MALDI); assay type: binding
Method in brief: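 Human Erk1 was incubated 60 min at room temperature with a 10-fold molar excess of compound, then analysed as intact protein by MALDI with sinapinic acid matrix. The centroid mass shift versus untreated protein was divided by compound molecular weight to give percent modified protein.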

MEK1 activated ERK1 = MEK1 activated ERK1 (Homo sapiens (Human), UniProt P27361); experiment: Omnia continuous-read kinase assay for potency against MEK1 activated ERK1; assay type: biochemical; conditions: MEK1 activated ERK1, WT, ATP at KM
Description: Omnia Assay Protocol for Potency Assessment Against MEK1 Activated ERK1:
The protocol below describes continuous-read kinase assays to measure potency of compounds against activated ERK1 enzyme. The mechanics of the assay platform are best described by the vendor (Invitrogen, Carlsbad, Calif.) on their website at the following URL: invitrogen.com/site/us/en/home.html.
Briefly, a 1.25× stock of ERK1 enzyme (14-439-K) from Millipore (Billerica, Mass.), 5×ATP (AS001A) and ST17-Sox conjugated peptide substrate (KNZ1171C) were prepared in 1× kinase reaction buffer consisting of 20 mM Tris, pH 7.5, 5 mM MgCl2, 1 mM EGTA, 5 mM β-glycerophosphate, 5% glycerol (10× stock, KB002A) and 0.2 mM DTT. 10 μL of ATP/ST17-sox peptide substrate mix was combined with 0.5 μL volume of 100% DMSO and serially diluted compounds were prepared in 100% DMSO in a Corning (#3574) 384-well, white, non-binding surface microtiter plate (Corning, N.Y.). Kinase reactions were started with the addition of 40 μL of ERK1 solution and monitored every 71 seconds for 30-240 minutes at λex360/λem485 in a Synergy plate reader from BioTek (Winooski, Vt.). At the conclusion of each assay, progress curves from each well were examined for linear reaction kinetics and fit statistics (R^2, 95% confidence interval, absolute sum of squares). Initial velocity (0 minutes to ˜30+ minutes) from each reaction was determined from the slope of a plot of relative fluorescence units vs time (minutes or seconds) and then plotted against inhibitor concentration to estimate ^AppIC50 from log [Inhibitor] vs Response, Variable Slope model in GraphPad Prism from GraphPad Software (San Diego, Calif.).
[Reagent] used in optimized protocol:
[ERK1]=4 nM, [ATP]=50 μM, [ST17-Sox]=10 μM (ATP ^appKM 48 μM)
The results of this assay show the degree of inhibition of ERK activity, which is a direct measurement of inhibition of ERK activity. Results from this assay are reported in Table A under the column “ERK1 Omnia WT ATP KM IC50 (nM).”

MEK1 activated ERK1, sequence (P27361 whole entry): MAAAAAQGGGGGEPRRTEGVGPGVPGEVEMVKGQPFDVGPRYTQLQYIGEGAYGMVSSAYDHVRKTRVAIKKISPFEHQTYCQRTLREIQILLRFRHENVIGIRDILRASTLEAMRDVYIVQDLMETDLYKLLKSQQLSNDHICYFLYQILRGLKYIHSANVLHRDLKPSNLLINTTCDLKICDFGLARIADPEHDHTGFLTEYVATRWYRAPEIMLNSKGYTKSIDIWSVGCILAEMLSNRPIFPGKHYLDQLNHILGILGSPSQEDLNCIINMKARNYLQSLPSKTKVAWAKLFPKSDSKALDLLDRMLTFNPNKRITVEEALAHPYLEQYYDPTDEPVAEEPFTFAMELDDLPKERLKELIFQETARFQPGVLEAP
Erk1, sequence (P27361 whole entry, looked up): as the sequence (P27361 whole entry) above

| ERK1 Mass Mod (%) (Erk1) | IC50 (MEK1 activated ERK1) | Compound |
| --- | --- | --- |
| G (proived a mass modification ≦30%) | > 1000 nM | C=CC(=O)N[C@H]1CCCC1Nc1nc(N[C@H]2CCCN(C(C)=O)C2)ncc1C(F)(F)F (stereo in doubt) [Compound I-24, N-((1S,2S)-2-((2-(((S)-1-Acetylpiperidin-3-yl)amino)-5-(trifluoromethyl)pyrimidin-4-yl)amino)cyclopentyl)acrylamide] |
| E (provided a mass modification of ≧70%) | < 100 nM | C=CC(=O)Nc1ccccc1Nc1nc(N[C@@H]2CCC[C@H](C(N)=O)C2)ncc1C(F)(F)F [Compound I-7, (1S,3R)-3-((4-((2-acrylamidophenyl)amino)-5-(trifluoromethyl)pyrimidin-2-yl)amino)cyclohexanecarboxamide] |
| E (provided a mass modification of ≧70%) | < 100 nM | C=CC(=O)Nc1ccccc1Nc1nc(N[C@H]2CCCN(C=O)C2)ncc1C(F)(F)F [Compound I-9, (S)—N-(2-((2-((1-formylpiperidin-3-yl)amino)-5-(trifluoromethyl)pyrimidin-4-yl)amino)phenyl)acrylamide] |
| E (provided a mass modification of ≧70%) | < 100 nM | C=CC(=O)Nc1ccccc1Nc1nc(N[C@H]2CCCN(C(C)=O)C2)ncc1C(F)(F)F [Compound I-10, (S)—N-(2-(2-(1-acetylpiperidin-3-ylamino)-5-(trifluoromethyl)pyrimidin-4-ylamino)phenyl)acrylamide] |
| E (provided a mass modification of ≧70%) | < 100 nM | C=CC(=O)Nc1ccccc1Nc1nc(NC2CCN(S(C)(=O)=O)CC2)ncc1C(F)(F)F [Compound I-13, N-(2-((2-((1-(methylsulfonyl)piperidin-4-yl)amino)-5-(trifluoromethyl)pyrimidin-4-yl)amino)phenyl)acrylamide] |
| E (provided a mass modification of ≧70%) | < 100 nM | C=CC(=O)Nc1ccccc1Nc1nc(N[C@H]2CCCN(C(N)=O)C2)ncc1C(F)(F)F [Compound I-18, (S)-3-((4-((2-Acrylamidophenyl)amino)-5-(trifluoromethyl)pyrimidin-2-yl)amino)piperidine-1-carboxamide] |
| E (provided a mass modification of ≧70%) | < 100 nM | C=CC(=O)Nc1cc(C)ccc1Nc1nc(N[C@H]2CCCN(C(C)=O)C2)ncc1C(F)(F)F [Compound I-19, (S)—N-(2-((2-((1-Acetylpiperidin-3-yl)amino)-5-(trifluoromethyl)pyrimidin-4-yl)amino)-5-methylphenyl)acrylamide] |
| E (provided a mass modification of ≧70%) | < 100 nM | C=CC(=O)Nc1cc(C)ccc1Nc1nc(N[C@H]2CCCN(C(=O)CO)C2)ncc1C(F)(F)F [Compound I-20, (S)—N-(2-((2-((1-(2-Hydroxyacetyl)piperidin-3-yl)amino)-5-(trifluoromethyl)pyrimidin-4-yl)amino)-5-methylphenyl)acrylamide] |
| G (proived a mass modification ≦30%) | > 1000 nM | N#CNC(=O)c1ccccc1Nc1nc(N[C@H]2CCCN(C(=O)CO)C2)ncc1C(F)(F)F [Compound I-26, (S)—N-Cyano-2-((2-((1-(2-hydroxyacetyl)piperidin-3-yl)amino)-5-(trifluoromethyl)pyrimidin-4-yl)amino)benzamide] |
| G (proived a mass modification ≦30%) | > 1000 nM | CC#CC(=O)Nc1ccccc1Nc1nc(N[C@H]2CCCN(C(=O)CO)C2)ncc1C(F)(F)F [Compound I-29, (S)—N-(2-((2-((1-(2-Hydroxyacetyl)piperidin-3-yl)amino)-5-(trifluoromethyl)pyrimidin-4-yl)amino)phenyl)but-2-ynamide] |
|  | < 100 nM | CCC(=O)Nc1ccccc1Nc1nc(N[C@H]2CCCN(C(=O)CO)C2)ncc1Cl [Compound I-311, (S)—N-(2-((5-chloro-2-((1-(2-hydroxyacetyl)piperidin-3-yl)amino)pyrimidin-4-yl)amino)phenyl)propionamide] |
| E (provided a mass modification of ≧70%) |  | C=CC(=O)Nc1cc(C)ccc1Nc1nc(Nc2nc(OC)ncc2F)ncc1C(F)(F)F [Compound I-357, N-(2-((2-((5-fluoro-2-methoxypyrimidin-4-yl)amino)-5-(trifluoromethyl)pyrimidin-4-yl)amino)-5-methylphenyl)acrylamide] |

More lines, now with the values behind:

| Compound | ERK1 Mass Mod (%) (Erk1) | IC50 (MEK1 activated ERK1) |
| --- | --- | --- |
| C=CC(=O)Nc1ccccc1Nc1nc(N[C@H]2CCCN(C(=O)OC)C2)ncc1C(F)(F)F [Compound I-17, (S)-Methyl 3-((4-((2-acrylamidophenyl)amino)-5-(trifluoromethyl)pyrimidin-2-yl)amino) piperidine-1-carboxylate] | F (provided a mass modification of 31-69%) | < 100 nM |
| C#CC(=O)Nc1cc(C)ccc1Nc1nc(Nc2cc(OC)ncc2C)ncc1C(F)(F)F [Compound I-345, N-(2-((2-((2-methoxy-5-methylpyridin-4-yl)amino)-5-(trifluoromethyl)pyrimidin-4-yl)amino)-5-methylphenyl)propiolamide] | E (provided a mass modification of ≧70%) |  |
| C=CC(=O)Nc1cc(C)ccc1Nc1nc(Nc2nc(OC)ncc2C#N)ncc1C(F)(F)F [Compound I-346, N-(2-((2-((5-cyano-2-methoxypyrimidin-4-yl)amino)-5-(trifluoromethyl)pyrimidin-4-yl)amino)-5-methylphenyl)acrylamide] | E (provided a mass modification of ≧70%) |  |
| C=CC(=O)Nc1cc(C)ccc1Nc1nc(Nc2nc(OC)ncc2OC)ncc1C(F)(F)F [Compound I-349, N-(2-((2-((2,5-dimethoxypyrimidin-4-yl)amino)-5-(trifluoromethyl)pyrimidin-4-yl)amino)-5-methylphenyl)acrylamide] | E (provided a mass modification of ≧70%) |  |
| C=CC(=O)Nc1cc(C)ccc1Nc1nc(Nc2cnc(OC)cc2C)ncc1C(F)(F)F [Compound I-350, N-(2-((2-((6-methoxy-4-methylpyridin-3-yl)amino)-5-(trifluoromethyl)pyrimidin-4-yl)amino)-5-methylphenyl)acrylamide] | F (provided a mass modification of 31-69%) |  |
| C=CC(=O)Nc1cc(C)ccc1Nc1nc(Nc2cc(OC)ncc2Cl)ncc1C(F)(F)F [Compound I-351, N-(2-((2-((5-chloro-2-methoxypyridin-4-yl)amino)-5-(trifluoromethyl)pyrimidin-4-yl)amino)-5-methylphenyl)acrylamide] | F (provided a mass modification of 31-69%) |  |
| C=CC(=O)Nc1cc(C)ccc1Nc1nc(Nc2ncc(C(F)(F)F)c(OC)n2)ncc1C(F)(F)F [Compound I-354, N-(2-((2-((4-methoxy-5-(trifluoromethyl)pyrimidin-2-yl)amino)-5-(trifluoromethyl)pyrimidin-4-yl)amino)-5-methylphenyl)acrylamide] | E (provided a mass modification of ≧70%) |  |
| C=CC(=O)Nc1cc(C)ccc1Nc1nc(Nc2cc(OCC)ncc2C)ncc1C(F)(F)F [Compound I-358, N-(2-((2-((2-ethoxy-5-methylpyridin-4-yl)amino)-5-(trifluoromethyl)pyrimidin-4-yl)amino)-5-methylphenyl)acrylamide] | E (provided a mass modification of ≧70%) |  |
| C=CC(=O)Nc1cc(C)ccc1Nc1nc(Nc2cc(OCCOC)ncc2C)ncc1C(F)(F)F [Compound I-359, N-(2-((2-((2-(2-methoxyethoxy)-5-methylpyridin-4-yl)amino)-5-(trifluoromethyl)pyrimidin-4-yl)amino)-5-methylphenyl)acrylamide] | E (provided a mass modification of ≧70%) |  |
| C=CC(=O)Nc1cc(C)c(F)cc1Nc1nc(Nc2cc(OC)ncc2C)ncc1C(F)(F)F [Compound I-366, N-(4-fluoro-2-((2-((2-methoxy-5-methylpyridin-4-yl)amino)-5-(trifluoromethyl)pyrimidin-4-yl)amino)-5-methylphenyl)acrylamide] | E (provided a mass modification of ≧70%) |  |
| C=CC(=O)Nc1c(Nc2nc(Nc3cc(OC)ncc3C)ncc2C(F)(F)F)ccc(C)c1F [Compound I-367, N-(2-fluoro-6-((2-((2-methoxy-5-methylpyridin-4-yl)amino)-5-(trifluoromethyl)pyrimidin-4-yl)amino)-3-methylphenyl)acrylamide] | E (provided a mass modification of ≧70%) |  |
